Assay results taken from US11986532B2 (Arvinas Operations, Inc., priority 2021, dated 2024).
Read-outs that look alike come from different tables or passages of the source.

Target: T1, BCL6 (Homo sapiens, UniProt P41182)
T1 construct: endogenous in cells; host or cells: T47D breast cancer epithelial cells
Assay: Immunofluorescence protocol for high content imaging of BCL6 (degradation) in T47D cells, 3 days compound treatment
Type: cell-based
Conditions: for Dmax: read-out: Mean Dmax (%)** category; for DC50: read-out: Mean DC50 (nM)* category
Outline: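 T47D cells in RPMI1640-10% FBS were treated with an 11-point 3-fold dilution series (final top 0.1 or 1 μM) for 3 days at 37° C. After PFA fixation and Triton permeabilization, cells were immunostained with rabbit anti-BCL6 (1:300, overnight 4° C), Alexa-488 secondary, CellMask-647 and Hoechst, then imaged at 10×, 4 fields/well.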

[1] = T47D cells, 3 days compound treatment

DC50 [1] [nM]	Dmax [1] [%]	Compound	Dmax (T47D) [%]	DC50 [nM]
–	–	CNC(=O)COc1cc2cc(Nc3nc(N4CCC(CN5CCC6(CC5)CN(c5ccc7c(c5OC)CN(C5CCC(=O)NC5=O)C7=O)C6)CC4)ncc3Cl)ccc2n(C(C)C)c1=O (stereo not drawn) [Compound 302, 2-{[6-({5-chloro-2-[4-({2-[2-(2,6-dioxopiperidin-3-yl)-4-methoxy-1-oxo-2,3-dihydro-1H-isoindol-5-yl]-2,7-diazaspiro[3.5]nonan-7-yl}methyl)piperidin-1-yl]pyrimidin-4-yl}amino)-2-oxo-1-(propan-2-yl)-1,2-dihydroquinolin-3-yl]oxy}-N-methylacetamide]	50 to 70	< 10
–	–	CNC(=O)COc1cc2cc(Nc3nc(N4CCC(O[C@H]5C[C@H](N6CCC(c7ccc8c(c7F)CN([C@H]7CCC(=O)NC7=O)C8=O)CC6)C5)CC4)ncc3Cl)ccc2n(C(C)C)c1=O [Compound 385, 2-({6-[(5-chloro-2-{4-[(1r,3r)-3-(4-{2-[(3S)-2,6-dioxopiperidin-3-yl]-4-fluoro-1-oxo-2,3-dihydro-1H-isoindol-5-yl}piperidin-1-yl)cyclobutoxy]piperidin-1-yl}pyrimidin-4-yl)amino]-2-oxo-1-(propan-2-yl)-1,2-dihydroquinolin-3-yl}oxy)-N-methylacetamide]	50 to 70	< 10
≥ 100	≥ 70	CCNC(=O)COc1cc2cc(Nc3nc(N4CCC(CN5CCC6(CC5)CN(c5ccc7c(c5)C(=O)N(C5CCC(=O)NC5=O)C7=O)C6)CC4)ncc3Cl)ccc2n(C(C)C)c1=O (stereo not drawn) [Compound 56, 2-{[6-({5-chloro-2-[4-({2-[2-(2,6-dioxopiperidin-3-yl)-1,3-dioxo-2,3-dihydro-1H-isoindol-5-yl]-2,7-diazaspiro[3.5]nonan-7-yl}methyl)piperidin-1-yl]pyrimidin-4-yl}amino)-2-oxo-1-(propan-2-yl)-1,2-dihydroquinolin-3-yl]oxy}-N-ethylacetamide]	–	–
–	–	CNC(=O)COc1cc2cc(Nc3nc(N4CCC(N5CCC56CN(C5CCN(c7ccc8c(c7)CN(C7CCC(=O)NC7=O)C8=O)CC5)C6)CC4)ncc3Cl)ccc2n(C(C)C)c1=O (stereo not drawn) [Compound 238, 2-{[6-({5-chloro-2-[4-(6-{1-[2-(2,6-dioxopiperidin-3-yl)-1-oxo-2,3-dihydro-1H-isoindol-5-yl]piperidin-4-yl}-1,6-diazaspiro[3.3]heptan-1-yl)piperidin-1-yl]pyrimidin-4-yl}amino)-2-oxo-1-(propan-2-yl)-1,2-dihydroquinolin-3-yl]oxy}-N-methylacetamide]	50 to 70	< 10
–	–	CNC(=O)COc1cc2c(F)c(Nc3nc(N4CCC(O[C@H]5C[C@H](N6CCC(c7ccc8c(c7C)C(=O)N(C7CCC(=O)NC7=O)C8=O)CC6)C5)CC4)ncc3Cl)ccc2n(C(C)C)c1=O (stereo partly drawn) [Compound 419, 2-({6-[(5-chloro-2-{4-[(1r,3r)-3-{4-[2-(2,6-dioxopiperidin-3-yl)-4-methyl-1,3-dioxo-2,3-dihydro-1H-isoindol-5-yl]piperidin-1-yl}cyclobutoxy]piperidin-1-yl}pyrimidin-4-yl)amino]-5-fluoro-2-oxo-1-(propan-2-yl)-1,2-dihydroquinolin-3-yl}oxy)-N-methylacetamide]	≥ 70	< 10
50 to 100	< 50	CNC(=O)COc1cc2cc(Nc3nc(N4CCN(C[C@H]5C[C@H](N6CCC(c7cccc8c7C(=O)N(C7CCC(=O)NC7=O)C8=O)CC6)C5)CC4)ncc3Cl)ccc2n(C(C)C)c1=O (stereo partly drawn) [Compound 24, 2-[(6-{[5-chloro-2-(4-{[(1r,3r)-3-{4-[2-(2,6-dioxopiperidin-3-yl)-1,3-dioxo-2,3-dihydro-1H-isoindol-4-yl]piperidin-1-yl}cyclobutyl]methyl}piperazin-1-yl)pyrimidin-4-yl]amino}-2-oxo-1-(propan-2-yl)-1,2-dihydroquinolin-3-yl)oxy]-N-methylacetamide]	–	–
–	–	CNC(=O)COc1cc2cc(Nc3nc(N4CCC(O[C@H]5C[C@H](N6CCC7(CCN(c8ccc9c(c8)C(=O)N(C8CCC(=O)NC8=O)C9=O)C7)C6)C5)CC4)ncc3Cl)ccc2n(C(C)C)c1=O (stereo partly drawn) [Compound 339, 2-({6-[(5-chloro-2-{4-[(1r,3r)-3-{7-[2-(2,6-dioxopiperidin-3-yl)-1,3-dioxo-2,3-dihydro-1H-isoindol-5-yl]-2,7-diazaspiro[4.4]nonan-2-yl}cyclobutoxy]piperidin-1-yl}pyrimidin-4-yl)amino]-2-oxo-1-(propan-2-yl)-1,2-dihydroquinolin-3-yl}oxy)-N-methylacetamide]	50 to 70	< 10
–	–	CNC(=O)COc1cc2cc(Nc3nc(N4CCC(CN5CCC6(CC5)CC5(CN(c7ccc8c(c7)C(=O)N(C7CCC(=O)NC7=O)C8=O)C5)C6)CC4)ncc3Cl)ccc2n(C(C)C)c1=O (stereo not drawn) [Compound 373, 2-{[6-({5-chloro-2-[4-({2-[2-(2,6-dioxopiperidin-3-yl)-1,3-dioxo-2,3-dihydro-1H-isoindol-5-yl]-2,9-diazadispiro[3.1.5^6.1^4]dodecan-9-yl}methyl)piperidin-1-yl]pyrimidin-4-yl}amino)-2-oxo-1-(propan-2-yl)-1,2-dihydroquinolin-3-yl]oxy}-N-methylacetamide]	≥ 70	< 10
–	–	CNC(=O)COc1cc2cc(Nc3nc(N4CCC(O[C@H]5C[C@H](N6CCN(c7ccc8c(c7F)CN([C@H]7CCC(=O)NC7=O)C8=O)CC6)C5)CC4)ncc3Cl)ccc2n(C(C)C)c1=O [Compound 388, 2-({6-[(5-chloro-2-{4-[(1r,3r)-3-(4-{2-[(3S)-2,6-dioxopiperidin-3-yl]-4-fluoro-1-oxo-2,3-dihydro-1H-isoindol-5-yl}piperazin-1-yl)cyclobutoxy]piperidin-1-yl}pyrimidin-4-yl)amino]-2-oxo-1-(propan-2-yl)-1,2-dihydroquinolin-3-yl}oxy)-N-methylacetamide]	50 to 70	< 10
–	–	CNC(=O)COc1cc2cc(Nc3cc(N4CCC(CN5CCC6(CC5)CN(c5ccc7c(c5)CN(C5CCC(=O)NC5=O)C7=O)C6)CC4)ncc3Cl)ccc2n(C(C)C)c1=O (stereo not drawn) [Compound 321, 2-{[6-({5-chloro-2-[4-({2-[2-(2,6-dioxopiperidin-3-yl)-1-oxo-2,3-dihydro-1H-isoindol-5-yl]-2,7-diazaspiro[3.5]nonan-7-yl}methyl)piperidin-1-yl]pyridin-4-yl}amino)-2-oxo-1-(propan-2-yl)-1,2-dihydroquinolin-3-yl]oxy}-N-methylacetamide]	50 to 70	< 10
< 10	≥ 70	CNC(=O)COc1cc2cc(Nc3nc(N4CCC(OC5CN([C@H]6CC[C@H](c7ccc8c(c7F)CN(C7CCC(=O)NC7=O)C8=O)CC6)C5)CC4)ncc3Cl)ccc2n(C(C)C)c1=O (stereo partly drawn) [Compound 183, 2-{[6-({5-chloro-2-[4-({1-[(1r,4r)-4-[2-(2,6-dioxopiperidin-3-yl)-4-fluoro-1-oxo-2,3-dihydro-1H-isoindol-5-yl]cyclohexyl]azetidin-3-yl}oxy)piperidin-1-yl]pyrimidin-4-yl}amino)-2-oxo-1-(propan-2-yl)-1,2-dihydroquinolin-3-yl]oxy}-N-methylacetamide]	–	–
–	–	CNC(=O)COc1cc2cc(Nc3nc(N4CCC(O[C@H]5C[C@H](N6CCN(c7cc8c(cc7F)C(=O)N(C7CCC(=O)NC7=O)C8=O)[C@H](C)C6)C5)CC4)ncc3Cl)ccc2n(C(C)C)c1=O (stereo partly drawn) [Compound 408, 2-({6-[(5-chloro-2-{4-[(1r,3r)-3-[(3R)-4-[2-(2,6-dioxopiperidin-3-yl)-6-fluoro-1,3-dioxo-2,3-dihydro-1H-isoindol-5-yl]-3-methylpiperazin-1-yl]cyclobutoxy]piperidin-1-yl}pyrimidin-4-yl)amino]-2-oxo-1-(propan-2-yl)-1,2-dihydroquinolin-3-yl}oxy)-N-methylacetamide]	50 to 70	50 to 100
< 10	≥ 70	CNC(=O)COc1cc2cc(Nc3nc(N4CCC(C(C)(C)N5CCC6(CC5)CN(c5cccc7c5C(=O)N(C5CCC(=O)NC5=O)C7=O)C6)CC4)ncc3Cl)ccc2n(C(C)C)c1=O (stereo not drawn) [Compound 46, 2-{[6-({5-chloro-2-[4-(2-{2-[2-(2,6-dioxopiperidin-3-yl)-1,3-dioxo-2,3-dihydro-1H-isoindol-4-yl]-2,7-diazaspiro [3.5]nonan-7-yl}propan-2-yl)piperidin-1-yl]pyrimidin-4-yl}amino)-2-oxo-1-(propan-2-yl)-1,2-dihydroquinolin-3-yl]oxy}-N-methylacetamide]	–	–
–	–	CNC(=O)COc1cc2c(F)c(Nc3nc(N4CCC(F)(CN5CCC6(CC5)CN(c5ccc7c(c5F)CN(C5CCC(=O)NC5=O)C7=O)C6)CC4)ncc3Cl)ccc2n(C(C)C)c1=O (stereo not drawn) [Compound 390, 2-{[6-({5-chloro-2-[4-({2-[2-(2,6-dioxopiperidin-3-yl)-4-fluoro-1-oxo-2,3-dihydro-1H-isoindol-5-yl]-2,7-diazaspiro[3.5]nonan-7-yl}methyl)-4-fluoropiperidin-1-yl]pyrimidin-4-yl}amino)-5-fluoro-2-oxo-1-(propan-2-yl)-1,2-dihydroquinolin-3-yl]oxy}-N-methylacetamide]	≥ 70	< 10
–	–	CNC(=O)COc1cc2cc(Nc3nc(N4CCC(O[C@H]5C[C@H](N6CCC7(CC6)CN(c6ccc8c(c6)C(=O)N(C6CCC(=O)NC6=O)C8=O)C7)C5)CC4)ncc3Cl)ccc2n(C(C)C)c1=O (stereo partly drawn) [Compound 357, 2-({6-[(5-chloro-2-{4-[(1r,3r)-3-{2-[2-(2,6-dioxopiperidin-3-yl)-1,3-dioxo-2,3-dihydro-1H-isoindol-5-yl]-2,7-diazaspiro [3.5]nonan-7-yl}cyclobutoxy]piperidin-1-yl}pyrimidin-4-yl)amino]-2-oxo-1-(propan-2-yl)-1,2-dihydroquinolin-3-yl}oxy)-N-methylacetamide]	≥ 70	< 10
